{"source": "patent US11529311B2", "about": "“Method of using nebulized alcohol for analgesia” (BN Intellectual Properties, Inc., priority 2021, dated 2022)", "remark": "listed apart in the source", "key": {"[1]": {"conditions": "adult, 1-2 inhalations", "description": "Example 2: A second patient treatment is of an adult experiencing sinus headaches using nebulized ethanol solution."}, "[2]": {"description": "Example 1: A first patient treatment example is that of an adult experiencing pain from multiple neck injuries and replaced vertebrae who was treating pain using 60 mg Oxycontin® (30 mg in morning and night) and 6 doses of Percocet® daily as needed before ethanol treatment. The patient's opioid usage history spanned 11 years. The first patient also took Ambien® at night to promote sleep.\nThe first patient takes nebulized alcohol in the morning and at bedtime (about 3-4 inhalations each time), wakes in the night to use the bathroom, and occasionally takes nebulized alcohol during the night."}, "[3]": {"description": "Example 3: A third patient experienced acute pain from a chronic back injury which occurred during a car accident approximately 40 years earlier. The patient experienced acute pain for about 8 hours, requiring assistance to lower themself to sit in a chair, to stand up from the chair, and to walk about.", "remark": "listed apart in the source"}, "[4]": {"conditions": "over the course of ethanol treatment"}, "[5]": {"conditions": "patient report, result of reduced Oxycontin doses"}, "[6]": {"conditions": "patient report, nebulized alcohol morning and bedtime"}}, "data": [{"substance": "Ethyl alcohol [nebulized ethanol]", "values": [{"measurement": "rate of achieving pain relief compared with other treatments (sinus rinse, other pain medications)", "setting": "[1]", "result": "significantly faster"}, {"measurement": "reported levels of pain", "setting": "[2]; adult male, 11 years of opioid use, over the course of ethanol treatment, about 3-4 inhalations morning and bedtime", "result": "significantly lower"}, {"measurement": "Oxycontin usage", "setting": "[2]; after 6 months of ethanol therapy, 60 mg daily before treatment", "result": 10, "unit": "mg/day"}, {"measurement": "Percocet usage", "setting": "[2]; after 6 months of ethanol therapy, 6 doses daily as needed before treatment", "result": "no Percocet® during the day"}, {"measurement": "opioid usage", "setting": "[2]; [4]", "result": "reduced"}, {"measurement": "physical stamina, physical performance (kidney and bowel function), and mental acuity", "setting": "[2]; [4]", "result": "improved"}, {"measurement": "alertness, attention, and mental acuity", "setting": "[2]; [5]", "result": "increased"}, {"measurement": "bowel function", "setting": "[2]; [5]", "result": "increased bowel function"}, {"measurement": "mobility", "setting": "[2]; [5]", "result": "greater mobility (able to resume dance activities)"}, {"measurement": "posture", "setting": "[2]; [5]", "result": "improved posture (able to hold head in a vertical position)"}, {"measurement": "renal function", "setting": "[2]; [5]", "result": "increased renal function (no more water retention/bloating)"}, {"measurement": "quality of sleep", "setting": "[2]; [6]", "result": "increased"}, {"measurement": "usage of sleep aids to counteract discomfort and pain from injuries", "setting": "[2]; [6]", "result": "reduced"}, {"measurement": "duration of brain effects (euphoria, and so forth)", "setting": "persons in the absence of significant pain", "result": "about 2 hours"}, {"measurement": "reported feeling (side effects)", "setting": "persons who take nebulized alcohol for pain", "result": "moderate sleepiness or drowsiness, but not “buzzed” or “intoxicated”"}, {"measurement": "pain relief after repeated treatment", "setting": "[3]; 4 inhalations per treatment", "result": "complete relief"}, {"measurement": "pain relief after initial session", "setting": "[3]; 5 inhalations per treatment", "result": "complete pain relief"}, {"measurement": "time until pain recurred after the initial session", "setting": "[3]; 5 inhalations per treatment", "result": "approximately 12 hours"}, {"measurement": "time to complete remission of pain", "setting": "[3]; in vivo", "result": 48, "unit": "h"}, {"measurement": "time to remission relative to time with other analgesics prior to ethanol therapy", "setting": "[3]; in vivo", "result": "approximately 50%"}]}]}
